Test: Relative thermodynamic stability of the two anhydrous crystalline forms (enantiotropic pair)
Type: physicochemical
Details: freebase of compound of structural formula A; Form I and Form II are enantiotropic

| temperatures at which the form is thermodynamically more stable | Structure (SMILES) |
| --- | --- |
| above 72 °C | C[C@@H](O[C@H]1CC[C@@H]2CN(C3=CC(=O)CC3)C[C@H]2[C@@H]1c1ccc(F)cc1)c1cc(C(F)(F)F)cc(C(F)(F)F)c1 [Form II] |
| below 72 °C | C[C@@H](O[C@H]1CC[C@@H]2CN(C3=CC(=O)CC3)C[C@H]2[C@@H]1c1ccc(F)cc1)c1cc(C(F)(F)F)cc(C(F)(F)F)c1 [Form I] |
